assay: Cytotoxicity against mouse NS1 cells; format: functional

SMILES | LD99
C[C@@H]1CC(=O)C2=C(O1)c1cc(O)c(O)cc1OC2 | 0.05 µM
CS[C@@H]1C(=O)N(C)[C@](Cc2ccc(OCC=C(C)C)cc2)(SC)C(=O)N1C (relative stereo) | 0.15 µM
Cc1cc(=O)c2c(o1)-c1cc(O)c(O)cc1OC2 [CITROMYCIN] | 0.1 µM

Source: ChEMBL document CHEMBL1141331, “Citromycetins and bilains A-C: new aromatic polyketides and diketopiperazines from Australian marine-derived and terrestrial Penicillium spp” (2007)
